Reference: ChEMBL document CHEMBL1131037, “Structure-based design, synthesis, and biological evaluation of irreversible human rhinovirus 3C protease inhibitors. 2. Peptide structure-activity studies” (J Med Chem, 1998)

Key:
rhinovirus B14 [1] = assay: Cytotoxic activity against HRV-14 in cell culture; format: functional, rhinovirus 14; details: Rhinovirus B
[2] = biological target: T1, Human rhinovirus A protease (Human rhinovirus sp.) (UniProt Q4U254); assay: Binding affinity on human Rhinovirus 3C protease (rhinovirus serotype 14)
T1 sequence (whole entry): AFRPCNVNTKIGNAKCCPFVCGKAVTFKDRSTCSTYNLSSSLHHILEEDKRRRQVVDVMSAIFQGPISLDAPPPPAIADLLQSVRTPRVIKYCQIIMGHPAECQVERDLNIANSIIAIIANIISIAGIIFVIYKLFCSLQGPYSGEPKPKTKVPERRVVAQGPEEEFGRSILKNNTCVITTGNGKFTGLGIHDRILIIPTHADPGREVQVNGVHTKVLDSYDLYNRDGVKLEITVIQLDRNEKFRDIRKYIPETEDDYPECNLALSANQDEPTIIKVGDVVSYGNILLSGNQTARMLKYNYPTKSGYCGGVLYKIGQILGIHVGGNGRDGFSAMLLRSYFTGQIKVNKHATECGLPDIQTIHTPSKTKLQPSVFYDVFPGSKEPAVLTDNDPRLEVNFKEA

rhinovirus B14 [3] = assay: Antiviral activity against HRV-14 in cell culture; format: functional, organism-based; details: Rhinovirus B

SMILES	CC50 (rhinovirus B14 [1]) [µM]	K obs / 1 [2] [M⁻¹ s⁻¹]	EC50 (rhinovirus B14 [3]) [µM]
CCOC(=O)/C=C/[C@H](CCC(N)=O)NC(=O)[C@H](Cc1ccccc1)NC(=O)[C@H](CC(C)C)NC(=O)OC1CCCCC1	> 100	15500	7.6
CCOC(=O)/C=C/[C@H](CCC(N)=O)NC(=O)[C@H](Cc1ccc(CO)cc1)NC(=O)[C@H](CC(C)C)NC(=O)OCc1ccccc1	> 320	82300	0.55
CCOC(=O)/C=C/[C@H](CCC(N)=O)NC(=O)[C@H](CCC(=O)O)NC(=O)[C@H](CC(C)C)NC(=O)OCc1ccccc1	> 320	200	> 320
CCOC(=O)/C=C/[C@H](CCC(N)=O)NC(=O)[C@H](Cc1ccccc1)NC(=O)[C@H](CC(C)C)NC(=O)OCc1ccccc1Cl	> 100	19000	0.63
CCOC(=O)/C=C/[C@H](CCC(N)=O)NC(=O)[C@H](Cc1ccccc1)NC(=O)[C@H](CC(=O)N(C)C)NC(=O)OCc1ccccc1	> 320	22600	5.9
CCOC(=O)/C=C/[C@H](CCC(N)=O)NC(=O)OCc1ccccc1	> 100	4.5	> 100
CCOC(=O)/C=C/[C@H](CCC(N)=O)NC(=O)[C@H](Cc1ccccc1)NC(=O)[C@H](CO)NC(=O)OCc1ccccc1	> 320	39900	1.8
CCOC(=O)/C=C/[C@H](CCC(N)=O)NC(=O)[C@H](Cc1ccc(C)cc1)NC(=O)[C@@H](NC(=O)SC1CCCC1)C(C)(C)C	–	–	0.056
CCOC(=O)/C=C/[C@H](CCC(N)=O)NC(=O)[C@H](Cc1ccccc1)NC(=O)[C@H](CC(C)C)NC(=O)CO	> 320	2100	30
CCOC(=O)/C=C/[C@H](CCC(N)=O)NC(=O)[C@H](Cc1ccccc1)NC(=O)[C@H](CSC)NC(=O)OCc1ccccc1	> 100	35200	0.18
CCOC(=O)/C=C/[C@H](CCC(N)=O)NC(=O)[C@H](Cc1ccc(C(N)=O)cc1)NC(=O)[C@H](CC(C)C)NC(=O)OCc1ccccc1	177	9600	> 177
CCOC(=O)/C=C/[C@H](CCC(N)=O)NC(=O)[C@H](Cc1ccccc1)NC(=O)[C@H](CC(C)C)NC(=O)CCO	> 320	4500	19
CCOC(=O)/C=C/[C@H](CNC(C)=O)NC(=O)[C@H](Cc1ccccc1)NC(=O)[C@H](CC(C)C)NC(=O)OCc1ccccc1	> 320	800	2.2
CCOC(=O)/C=C/[C@H](CCC(N)=O)NC(=O)[C@H](CC(C)C)NC(=O)[C@H](CC(C)C)NC(=O)OCc1ccccc1	> 320	2300	5.4
CCOC(=O)/C=C/[C@H](CCC(N)=O)NC(=O)[C@H](Cc1ccccc1)NC(=O)[C@H](CSc1ccccc1)NC(=O)OCc1ccccc1	> 320	141000	0.12
CCOC(=O)/C=C/[C@H](CCC(N)=O)NC(=O)[C@H](Cc1ccccc1)NC(=O)CNC(=O)OCc1ccccc1	> 320	3800	5.6
CCOC(=O)/C=C/[C@H](CCC(N)=O)NC(=O)[C@H](Cc1ccccc1)NC(=O)[C@@H](NC(=O)OCc1ccccc1)C(C)(C)CO	> 100	40000	1.3
CCOC(=O)/C=C/[C@H](CCC(N)=O)NC(=O)[C@H](Cc1ccccc1)NC(=O)[C@H](CC(C)C)NC(=O)[C@H](C)NC(C)=O	> 100	43400	20
CCOC(=O)/C=C/[C@H](CCC(C)O)NC(=O)[C@H](Cc1ccccc1)NC(=O)[C@H](CC(C)C)NC(=O)OCc1ccccc1 (stereo not given in full)	> 100	0	> 100
CCOC(=O)/C=C/[C@H](CO)NC(=O)[C@H](Cc1ccccc1)NC(=O)[C@H](CC(C)C)NC(=O)OCc1ccccc1	190	0	> 190

SMILES	CC50 (rhinovirus B14 [1]) [µM]	K obs / 1 [2] [M⁻¹ s⁻¹]	EC50 (rhinovirus B14 [3]) [µM]
CCOC(=O)/C=C/[C@H](CCC(N)=O)NC(=O)[C@H](Cc1ccccc1)NC(=O)[C@H](CC1CCCCC1)NC(=O)OCc1ccccc1	> 320	39000	1.2
CCOC(=O)/C=C/[C@H](CCC(N)=O)NC(=O)[C@H](Cc1ccc(COC)cc1)NC(=O)[C@H](CC(C)C)NC(=O)OCc1ccccc1	> 320	7100	39
CCOC(=O)/C=C/[C@H](CCC(N)=O)NC(=O)[C@H](Cc1ccccc1)NC(=O)[C@H](CC(C)C)NC(=O)OCc1ccncc1	> 320	12000	56
CCOC(=O)/C=C/[C@H](CCC(N)=O)NC(=O)[C@H](Cc1ccccc1)NC(=O)[C@H](CC(C)C)NC(=O)[C@@H](NC(C)=O)C(C)C	> 100	26700	63
CCOC(=O)/C=C/[C@H](CCC(N)=O)NC(=O)[C@H](Cc1ccccc1)NC(=O)[C@H](CSCc1ccccc1)NC(=O)OCc1ccccc1	> 100	97000	0.2
CCOC(=O)/C=C/[C@H](CCC(N)=O)NC(=O)[C@H](Cc1ccccc1)NC(=O)[C@H](Cc1ccccc1)NC(=O)OCc1ccccc1	> 320	162000	0.56
CCOC(=O)/C=C/[C@H](CCC(N)=O)NC(=O)[C@H](Cc1ccccc1)NC(=O)[C@H](CC(C)C)NC(=O)C(C)C	> 320	18800	1
CCOC(=O)/C=C/[C@H](CC[S+](C)[O-])NC(=O)[C@H](Cc1ccccc1)NC(=O)[C@H](CC(C)C)NC(=O)OCc1ccccc1 (stereo not given in full)	> 100	2200	1.6
CCOC(=O)/C=C/[C@H](CCC(N)=O)NC(=O)[C@H](Cc1ccccc1)NC(=O)[C@@H](NC(=O)OCc1ccccc1)[C@H](C)SC(C)C	> 100	40000	10
CCOC(=O)/C=C/[C@H](CCC(N)=O)NC(=O)[C@H](Cc1ccccc1)NC(=O)[C@H](CC(C)C)NC(=O)c1ccc2ccccc2c1	> 320	21000	1
CCOC(=O)/C=C/[C@H](CCC(N)=O)NC(=O)[C@H](Cc1ccccc1)NC(=O)[C@H](CCCCN)NC(=O)OCc1ccccc1	> 320	18600	205
CCOC(=O)/C=C/[C@H](CCC(N)=O)NC(=O)[C@H](Cc1ccccc1)NC(=O)[C@H](CC(C)C)NC(=O)C(C)(C)C	> 100	8200	1.8
CCOC(=O)/C=C/[C@H](CCC(C)=O)NC(=O)[C@H](Cc1ccccc1)NC(=O)[C@H](CC(C)C)NC(=O)OCc1ccccc1	> 100	1400	1.6
CCOC(=O)/C=C/[C@H](CCC(N)=O)NC(=O)[C@H](Cc1ccccc1)NC(=O)[C@H](CC(C)C)NC(=O)C1CCCC1	> 320	23700	0.6
CCOC(=O)/C=C/[C@H](CCC(=O)N(C)C)NC(=O)[C@H](Cc1ccccc1)NC(=O)[C@H](CC(C)C)NC(=O)OCc1ccccc1	> 100	60	4
CCOC(=O)/C=C/[C@H](CCC(N)=O)NC(=O)[C@H](Cc1ccccc1)NC(=O)[C@H](CC(C)C)NC(=O)OCc1ccccc1	> 320	–	0.54
CCOC(=O)/C=C/[C@H](COC(N)=O)NC(=O)[C@H](Cc1ccccc1)NC(=O)[C@H](CC(C)C)NC(=O)OCc1ccccc1	> 320	5600	1.6
CCOC(=O)/C=C/[C@H](CCC(N)=O)NC(=O)[C@H](Cc1ccccc1)NC(=O)[C@H](CCc1ccccc1)NC(=O)OCc1ccccc1	> 320	57000	0.25
CCOC(=O)/C=C/[C@H](CCC(N)=O)NC(=O)[C@H](Cc1ncc[nH]1)NC(=O)[C@H](CC(C)C)NC(=O)OCc1ccccc1	> 320	6800	27
CCOC(=O)/C=C/[C@H](CCC(N)=O)NC(=O)[C@H](Cc1ccccc1)NC(=O)[C@@H](NC(=O)OCc1ccccc1)c1ccccc1	–	20700	–
